Values quoted from earlier work in patent US9630918B2, “Cysteine, N-acetylcysteine, and penicillamine related compounds, pharmaceutical compositions thereof, and methods of use” (priority 2015, dated 2017).

What was measured:
stable COPD = conditions: patients with stable COPD, clinical study
[1] = not given; remark: listed apart in the source

oral bioavailability	Structure (SMILES)	exacerbation frequency (stable COPD)	small airways function (stable COPD)	interpatient oral variability [1]
4-10%	CC(=O)N[C@@H](CS)C(=O)O [NAC, N-Acetyl-L-cysteine]	decrease exacerbation frequency	improve small airways function	
	CC(C)(S)[C@@H](N)C(=O)O [D-penicillamine, D-Penicillamine]			high degree of interpatient oral variability
